Reference: patent US8575376B2, “Steroide anionic compounds, method of their production, usage and pharmaceutical preparation involving them” (Ustav Organicke Chemie A Biochemie Akademie Ved Ceske …, priority 2009, dated 2013)
Entries after “also recorded” stand apart in the source; their conditions may differ.

Legend:
[1] = test system: rats; test: Spontaneous locomotor activity in the open-field test; format: in vivo, rat; conditions: 1 and 10 mg/kg s.c., 30 min before, 30 min session
Experimental: Animals were tracked with Ethovision Pro system (Noldus, Netherlands) and total path traveled during this session was evaluated. The compound from Example 9 was applied subcutaneously (dissolved in cyclodextrin) 30 min prior to behavioral observations at doses 1 mg/kg a 10 mg/kg; control animals were injected with saline.

[2] = test system: C6 glioma cell line; test: Growth of glioma cells in culture; format: cell-based; conditions: 0.1 and 1 μg in 50 ml β-cyclodextrine solution, 3 div + 6 days
Experimental: The effect of compound from the example 9 (the model molecule) on growth of glioma cells was studied on C6 glioma cell line (ATTC, Rockville). The model molecule was tested at doses of 0.1 and 1 μg dissolved in 50 ml of β-cyclodextrine solution. Parallel control groups were administered by cholesterol at doses of 0.1 and 1 μg dissolved in 50 ml of β-cyclodextrine solution. The last group included in the experiment was left intact without any application.
The cells were cultivated in vitro for 3 days (div). Afterwards tested molecule was applied and the cell culture was studied for additional 6 days. Olympus microscope with phase contrast and 200× magnification was used for the cell monitoring.

[3] = test system: Long-Evans male rats; test: Acute toxicity in rat; format: in vivo
Experimental: Toxicity of compound from example 9 was tested on 2-month-old Long-Evans male rats. Animals were randomly assigned to 4 groups per 7 animals each. The first group was injected i.p. with saline, the second group received i.p. cyclodextrine, the third group obtained received the compound from example 9 at a dose 1 mg/kg (dissolved in β-cyclodextrine) and the last group compound from example 9 at a dose 100 mg/kg (dissolved in β-cyclodextrine). Animals were monitored for the period of 5 days. At the end of the experiment macroscopic dissection was carried out and organs were weighted (brain, heart, liver, spleen and kidneys). Animals' weight, food and water consumption was monitored daily. At the same time the behavior and locomotor activity was observed and animals were inspected for detection of effusions, constipation, etc.

[4] = test system: Long-Evans rats; test: Learned helplessness model of affective disorders; format: in vivo, rat; conditions: 1 mg/kg i.p. after inescapable shocks, tested 24 h later, p<0.01 vs LH group
Experimental: Male Long-Evans rats weighing 350-450 g were used. Animals were housed in groups in an air-conditioned room with 12 h/12 h light/dark cycle with the lights on at 7 a.m. Water and food were available ad libitum. Animals were randomly assigned to 3 groups—control group (received no shocks), learned helplessness group (received shocks) and experimental group (received shocks and injection of compound from example 9). An experimental set-up was composed of two chambers separated by a sliding door. The transparent shock chamber (48×20×20 cm) with one entrance led to the dark chamber (25×15×15 cm) made of black plexiglass. The floor of the shock chamber consisted of metal rods. Shocks were delivered through the grid floor. A shock generator (Data acquisition MF624 multifunction I/O board for PCI, Humusoft Ltd., Czech Republic) was connected to and controlled by a computer. On the pre-treatment day rats were individually placed into the apparatus for 10-minute habituation period. The sliding door separating two chambers was removed allowing free movements between the compartments. Immediately after the habituation rats were confined to the shock chamber for 1 hour. Inescapable shocks (72 V) of 10 s duration were delivered at 50 s intervals. Afterwards animals were injected i.p. with compound from example 9 in dose of 1 mg/kg. […] The number of escapes was recorded. […]

CC(=O)[C@H]1CC[C@H]2[C@@H]3CC[C@@H]4C[C@H](OC(=O)[C@@H](N)CCC(=O)O)CC[C@]4(C)[C@H]3CC[C@]12C [Example 9, 20-Oxo-5β-pregnan-3α-yl L-glutamyl 1-ester]
total distance traveled in the open-field session (spontaneous locomotor activity) [1]: did not significantly alter the spontaneous locomotor activity
effect on growth of glioma cells [2]: overall slight cytostatic and pro-differentiation effect on glioma cells
short-term body weight gain ([3]; 1 mg/kg i.p. (lower dose), 5 days): failed to affect short-term body weight gain
time to spontaneous awakening ([3]; 100 mg/kg i.p.): 4 h
short-term body weight gain ([3]; 100 mg/kg i.p. (higher dose), 5 days): tended to decrease it slightly
locomotor activity on the day of application ([3]; 100 mg/kg i.p., 15 minutes after injection): decreased locomotor activity
anesthetic effect ([3]; 100 mg/kg i.p., 45 minutes after injection): gradually changed into anesthesia of animals
weight of body organs (brain, heart, liver, spleen, kidneys) ([3]; 1 and 100 mg/kg i.p., autopsy on day 5): no differences between controls and animals treated with the compound from example 9
signs of acute toxicity ([3]; rat, i.p., doses up to 100 mg/kg, 5 days): does not exhibit any signs of acute toxicity; also recorded: absense of any signs of acute toxicity
number of escapes (learned helplessness) [4]: significantly increased number of escapes
